From patent US11590154B2, “Triple antibiotic fixed-dose combination products, dosing regimen, methods, and kits for treating pulmonary non-tuberculosis mycobacterial infections” (priority 2020, dated 2023)

What was measured:
[1] = tested on: MAC bacteria; type: cell-based, Mycobacterium avium complex; conditions: 2×MIC; starting inoculum 5.5 log10 CFU/ml
Procedure: In vitro, efficacy was studied in static time-kill kinetics assays (at 2×minimum inhibitory concentration [MIC]), intended to mirror a desired peak serum concentration for all three antibiotics using an established assay. All experiments were performed with a starting inoculum of 5.5 log10 CFU/ml MAC bacteria, higher than the bacterial load expected in the airway secretions of patients with mild nodular-bronchiectatic disease due to MAC.

[2] = tested on: MAC; experiment: MIC of the MAC strains used in the HFS-MAC studies; type: cell-based, Mycobacterium avium complex; conditions: Mycobacterium avium
Procedure: The MAC strain used in the HFS-MAC studies was ATCC strain 700898. The study center also had 5 well-characterized clinical strains that have undergone whole-genome sequencing and habituation to the HFS-MAC. Stock cultures of MAC were stored at −80° C. in Middlebrook 7H9 broth with 10% OADC and 10% glycerol. THP-1 monocytes were stored in liquid nitrogen and have been habituated for the HFS-MAC growth conditions.

[3] = tested on: intracellular MAC in THP-1 monocytes; experiment: Hollow fiber system model of MAC (HFS-MAC): microbial kill; type: cell-based, Mycobacterium avium complex; conditions: HF experiments
Procedure: The anti-mycobacterial effects of CLR, CFZ, and RFB was evaluated in the hollow fiber system model of MAC (HFS-MAC), which recapitulates the intrapulmonary concentrations of these antibiotics. The HFS-MAC allows for an assessment of the contribution of individual drug components in terms of anti-mycobacterial effects and enables exploration of potential synergy, additivity, or antagonism of different doses of drugs and combination regimens on the log-phase growth of intracellular MAC, for both microbial kill and resistance suppression.
A two-part investigation was conducted to assess the contribution of components of various FDC products comprising CLR, CFZ, and RFB in terms of depth and rate of MAC kill and suppression of the emergence of resistance. The anti-MAC activity of each antibiotic component was evaluated as one-drug alone; as two-drug combinations and the three-drug combination. For each combination (singlet, doublet or triplet), the drug concentrations were sampled from the HF fluid bathing MAC-infected cells. […] Anti-MAC activity was evaluated by kill slopes defined as the kill rate constant (and the half-life of kill [reciprocal of the kill rate constant]) as well as the maximum kill, defined as the maximum reduction in MAC CFUs and compared between the different antibiotic combinations.
MAC was grown into log-phase for 4 days, parallel with cultivation of THP-1 monocytes. The THP-1 cells were then infected with MAC overnight at a multiplicity of infection of 1:1. The THP-1 cells were washed to remove extracellular bacteria, and 20 mL of 1×10^6 (6.0 log10) cells/mL were inoculated into each HFS-MAC on Study Day 0. The peripheral compartment is the abluminal hollow fibers space that is also enclosed by the plastic, while the intraluminal space and flow path form the central compartment. […]

[4] = tested on: M. avium; experiment: MIC of antibiotics by broth microdilution, M. avium strains of Examples 3 and 4; type: cell-based, Mycobacterium avium subsp. hominissuis
Procedure: Susceptibility testing was conducted using broth microdilution single and twofold dilutions as described in the literature. Suspensions were prepared by swabs on a growth plate with a sterile cotton swab, or were prepared in broth culture. The growth was transferred to a 4.5 mL of phosphate buffer solution (PBS) until the turbidity matched the density of a 0.5 McFarland standard. Suspensions were then vigorously mixed on a vortex mixer for 15 to 20 seconds. The final inoculum was prepared to a bacterial density of 10^5. The tube was inverted 8-10 times to mix the suspension.
(§1) Following both the four-week and eight-week treatment period, mice were sacrificed, and lungs and spleens were harvested for CFU counts in each tissue and compared to CFUs recovered in the baseline and vehicle-treated groups. Tissue samples were plated with and without antibiotic on 7H10 agar. Antibiotic plates were made with minimum inhibitory concentrations (MICs) of 8 μg/ml for clarithromycin, and 0.25, μg/ml for both rifabutin (RFB) and clofazimine (CFZ). Plates were made for each of clarithromycin (CLR) alone, clarithromycin plus either rifabutin (CLR+RFB) or clofazimine (CLR+CFZ) and the three-drug combination (CLR+RFB+CFZ). All plates were incubated in a microbiological incubator at 37° C. for 14 days.

[5] = tested on: M. avium 104 biofilm; experiment: In vitro biofilm model of infection; type: cell-based, Mycobacterium avium subsp. hominissuis; conditions: mean ± SD; CLR 1.9-4.3 μg/mL, RFB 0.04 μg/mL, CFZ 0.0005 μg/mL
[6] = tested on: M. avium strain 104; experiment: Mouse lung infection model, clarithromycin sensitive strain; type: in vivo, Mycobacterium avium subsp. hominissuis; conditions: for reduction in CFU relative to vehicle: 50 mg/kg
Procedure: as §1

[7] = tested on: MAC; experiment: Lung histopathology of mice infected with MAC and treated for four and eight weeks; type: in vivo, Mycobacterium avium complex; conditions: 32 sections per group
From the text: Lung and Spleen Histopathology of Mice Infected with MAC and Treated with FDC Components Alone and in Combination for Four and Eight Weeks of Treatment
Each of the experimental group had eight cut examined from each lung (8×2 lungs=16×2 mice=32 sections). Lungs were normal and not showing any pathology at pre-infection.

[8] = 7-day mouse tolerability and PK study; conditions: for Cavg (clarithromycin): AUCtlast/24 h; for AUC(0-t) / Cmax / Tmax: female, C57BL/6, mouse, plasma, po, mouse plasma; for AUC(0-t): AUCtlast (clarithromycin); for Cmax: Cmax (clarithromycin); for Tmax: tmax (clarithromycin)
Procedure: Sixty (60) female mice were tested, 12 per treatment groups: […]

[9] = tested on: NTM; conditions: mouse models of systemic and lung infection; preclinical literature; cited from earlier work
[10] = epithelial lining fluid to total plasma/serum; cited from earlier work
[11] = 100 mg/kg, Day 1, CLR 100 mg/kg alone, oral
[12] = 100 mg/kg, Day 7, CLR 100 mg/kg alone, oral once daily
[13] = 200 mg/kg, Day 1, CLR 200 mg/kg alone, oral
[14] = 200 mg/kg, Day 1, CLR 200 mg/kg with RFB 60 mg/kg and CFZ 30 mg/kg, oral
[15] = 200 mg/kg, Day 7, CLR 200 mg/kg alone, oral once daily
[16] = 200 mg/kg, Day 7, CLR 200 mg/kg with RFB 60 mg/kg and CFZ 30 mg/kg, oral once daily

CC[C@H]1OC(=O)[C@H](C)[C@@H](O[C@H]2C[C@@](C)(OC)[C@@H](O)[C@H](C)O2)[C@H](C)[C@@H](O[C@@H]2O[C@H](C)C[C@H](N(C)C)[C@H]2O)[C@](C)(OC)C[C@@H](C)C(=O)[C@H](C)[C@@H](O)[C@]1(C)O [Clarithromycin, clarithromycin]
activity as single drugs [1]: bacteriostatic activity | MIC ([2]; ATCC700898, MAC (ATCC 700898), laboratory strain): 0.25 µg/mL | MIC ([2]; Clinical strain #1): 0.125 µg/mL | MIC ([2]; Clinical strain #2): 0.5 µg/mL | MIC ([2]; Clinical strain #3): 32 µg/mL | MIC ([2]; Clinical strain #4): 0.25 µg/mL | MIC ([2]; Clinical strain #5): 0.125 µg/mL | effect on CFUs / MAC killing, summary [3]: reductions in colony forming units | minimum inhibitory concentrations (MICs) used for antibiotic plates ([4]; 7H10 agar plates for tissue CFU counts): 8 µg/mL | MIC ([4]; Mycobacterium avium, clarithromycin resistant sub-subpopulation, 23 S RNA gene mutation): > 128 µg/mL | Colony Forming Unit Concentration, Four Days [5]: 1.35 ± 0.3 × 10^7 CFU/mL | Colony Forming Unit Concentration, Seven Days [5]: 1.07 ± 0.3 × 10^7 CFU/mL | reduction in CFU relative to vehicle ([6]; after eight weeks of treatment): ~2 log unit | reduction in CFU relative to vehicle ([6]; after four weeks of treatment): approximately 1 log unit | CFUs resistant to clarithromycin in one animal ([6]; clarithromycin monotherapy treatment): 200 CFUs | Lung Histopathology Findings [7]: Diffuse congestion; bacteria in granulomas | Cavg (clarithromycin) ([8]; Day 7, CLR 100 mg/kg alone): 729 ng/mL | Cavg (clarithromycin) ([8]; Day 7, CLR 200 mg/kg alone): 1,425 ng/mL | Cavg (clarithromycin) ([8]; Day 7, CLR 200 mg/kg with RFB 60 mg/kg and CFZ 30 mg/kg): 2,704 ng/mL | AUC(0-t) [8, 11]: 11100 ng·h/mL | AUC(0-t) [8, 12]: 17500 ng·h/mL | Cmax [8, 11]: 3400 ng/mL | Cmax [8, 12]: 6130 ng/mL | Tmax [8, 11]: 1 h | Tmax [8, 12]: 1 h | AUC(0-t) [8, 13]: 36200 ng·h/mL | AUC(0-t) [8, 14]: 44200 ng·h/mL | AUC(0-t) [8, 15]: 34200 ng·h/mL | AUC(0-t) [8, 16]: 64900 ng·h/mL | Cmax [8, 13]: 9110 ng/mL | Cmax [8, 14]: 8370 ng/mL | Cmax [8, 15]: 7430 ng/mL | Cmax [8, 16]: 10100 ng/mL | Tmax [8, 13]: 1 h | Tmax [8, 14]: 1 h | Tmax [8, 15]: 1 h | Tmax [8, 16]: 1 h | Effective Dose [9]: 50 to 100 mg/kg/day | ELF:plasma ratio [10]: 3.4-7.8
